Reference: patent publication US20210177828A1, “TAM FAMILY KINASE /AND CSF1R KINASE INHIBITOR AND USE THEREOF” (Nanjing Transthera Biosciences Co., Ltd., priority 2018, published 2021)

What was measured:
[1] = molecular target: T1, Axl (h) (Homo sapiens, UniProt P30530); test: Enzymatic activity assay, Axl (h), [γ-33P]-ATP filter assay; type: biochemical; settings: 10 μM ATP, 40 min room temperature; read-out: Inhibitory activity IC50 Axl(h)
T1 sequence (P30530 26-894): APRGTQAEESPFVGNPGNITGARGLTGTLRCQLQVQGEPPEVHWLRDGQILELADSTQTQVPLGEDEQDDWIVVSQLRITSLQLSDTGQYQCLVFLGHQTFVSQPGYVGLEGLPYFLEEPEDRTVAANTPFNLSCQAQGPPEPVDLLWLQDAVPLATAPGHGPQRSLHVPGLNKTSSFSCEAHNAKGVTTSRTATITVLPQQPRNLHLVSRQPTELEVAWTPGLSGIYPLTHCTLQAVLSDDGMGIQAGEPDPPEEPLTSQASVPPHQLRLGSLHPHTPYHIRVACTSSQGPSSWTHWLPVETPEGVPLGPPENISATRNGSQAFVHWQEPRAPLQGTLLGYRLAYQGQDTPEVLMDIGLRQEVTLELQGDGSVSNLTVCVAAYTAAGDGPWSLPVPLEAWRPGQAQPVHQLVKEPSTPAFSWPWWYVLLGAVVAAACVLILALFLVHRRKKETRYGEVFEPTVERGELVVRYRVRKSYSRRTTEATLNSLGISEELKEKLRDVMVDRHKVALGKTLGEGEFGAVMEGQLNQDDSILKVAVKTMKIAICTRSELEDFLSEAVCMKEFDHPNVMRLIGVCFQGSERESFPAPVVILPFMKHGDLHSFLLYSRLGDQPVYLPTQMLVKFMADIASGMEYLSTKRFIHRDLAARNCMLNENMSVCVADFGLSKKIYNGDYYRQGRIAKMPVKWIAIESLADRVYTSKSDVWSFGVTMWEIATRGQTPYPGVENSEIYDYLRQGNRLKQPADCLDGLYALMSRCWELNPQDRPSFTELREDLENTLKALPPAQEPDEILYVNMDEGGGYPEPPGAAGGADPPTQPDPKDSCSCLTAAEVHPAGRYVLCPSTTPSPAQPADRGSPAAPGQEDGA
Protocol: (§1) Compounds were each dissolved in 100% DMSO to prepare stock solutions with a maximum concentration of 500 μM.
(§2) Compound working solutions (50×) were prepared by diluting a compound stock solution to a final concentration of 500, 150, 50, 15, 5, 1.5, 0.5, 0.15 and 0.05 μM.
An enzyme solution with a final concentration of 1.7 nM was prepared by dissolving Axl (h) enzyme in a mixture of 8 mM MOPS (pH 7.0), 0.2 mM EDTA and 250 μM KKSRGDYMTMQIG. A Mg/ATP mixture of 10 mM magnesium acetate and 10 μM [γ-^33P]-ATP was used to activate the enzymatic reaction.
(§3) A compound working solution was added to a 384-well plate, with final concentrations of 10,000, 3,000, 1,000, 300, 100, 30, 10, 3 and 1 nM, and then different enzymatic reaction solutions prepared according to the above conditions were added. The reaction solutions were incubated at room temperature for 40 min, and then 0.5% phosphoric acid solutions were added to terminate the reaction. 10 μL of the reaction solution was added dropwise to P30 filter paper, washed 4 times with a 0.425% phosphoric acid solution and once with methanol, and then placed in a scintillation counter for detection. Gray analysis was performed on the results with Image J software, and IC50 values were calculated with GraphPad 5.0 software.

[2] = molecular target: T2, Mer (h) (Homo sapiens, UniProt Q12866); test: Enzymatic activity assay, Mer (h), [γ-33P]-ATP filter assay; type: biochemical; settings: 10 μM ATP, 40 min room temperature; read-out: Inhibitory activity IC50 Mer(h)
T2 sequence (Q12866 21-999): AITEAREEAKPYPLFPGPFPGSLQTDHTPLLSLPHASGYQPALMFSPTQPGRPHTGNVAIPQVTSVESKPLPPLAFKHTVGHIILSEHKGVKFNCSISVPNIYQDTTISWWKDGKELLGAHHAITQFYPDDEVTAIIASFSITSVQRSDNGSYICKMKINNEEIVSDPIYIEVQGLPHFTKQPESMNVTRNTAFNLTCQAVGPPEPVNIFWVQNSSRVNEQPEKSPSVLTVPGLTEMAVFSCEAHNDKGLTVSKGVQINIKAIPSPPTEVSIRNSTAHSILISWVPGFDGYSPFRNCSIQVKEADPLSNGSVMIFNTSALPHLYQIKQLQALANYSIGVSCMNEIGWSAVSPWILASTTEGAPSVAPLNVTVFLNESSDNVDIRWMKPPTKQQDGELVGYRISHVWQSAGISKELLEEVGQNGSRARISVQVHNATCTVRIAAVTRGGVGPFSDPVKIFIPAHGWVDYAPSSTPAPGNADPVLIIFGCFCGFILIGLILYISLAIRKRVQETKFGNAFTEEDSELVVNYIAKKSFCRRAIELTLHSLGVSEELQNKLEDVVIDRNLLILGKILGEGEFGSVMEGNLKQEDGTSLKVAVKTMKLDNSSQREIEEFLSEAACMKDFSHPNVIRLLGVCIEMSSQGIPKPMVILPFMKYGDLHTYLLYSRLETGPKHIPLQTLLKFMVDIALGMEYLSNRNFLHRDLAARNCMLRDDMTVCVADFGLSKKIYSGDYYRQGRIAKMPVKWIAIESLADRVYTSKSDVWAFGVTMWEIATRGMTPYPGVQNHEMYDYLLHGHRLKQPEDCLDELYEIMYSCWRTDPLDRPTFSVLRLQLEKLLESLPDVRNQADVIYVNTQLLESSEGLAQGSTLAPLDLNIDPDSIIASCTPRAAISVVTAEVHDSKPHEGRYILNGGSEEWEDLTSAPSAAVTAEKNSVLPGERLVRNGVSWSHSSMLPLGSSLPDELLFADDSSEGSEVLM
Protocol: as §1, §2
An enzyme solution with a final concentration of 3.1 nM was prepared by dissolving Mer (h) enzyme in a mixture of 8 mM MOPS (pH 7.0), 0.2 mM EDTA, 30 mM NaCl and 250 μM GGMEDIYFEFMGGKKK. A Mg/ATP mixture of 10 mM magnesium acetate and 10 μM [γ-^33P]-ATP was used to activate the enzymatic reaction.
as §3

| IC50 [1] [nM] | IC50 [2] [nM] | SMILES |
| --- | --- | --- |
| 5 | 2 | COc1cc2nccc(Oc3ccc(NC(=O)c4cn(CC5CCOCC5)cc(-c5ccc(C)cc5)c4=O)nc3)c2cc1OC [Compound 1, N-(5-((6,7-dimethoxyquinolin-4-yl)oxy)pyridin-2-yl)-4-oxo-1-((tetrahydro-2H-pyran-4-yl)methyl)-5-(p-tolyl)-1,4-dihydropyridin-3-carboxamide] |
| 31 | 12 | COc1cc2nccc(Oc3ccc(NC(=O)c4cc(CC5CCOCC5)cn(-c5ccc(F)cc5)c4=O)nc3)c2cc1OC [Compound 32, N-(5-((6,7-dimethoxyquinolin-4-yl)oxy)pyridin-2-yl)-1-(4-fluorophenyl)-2-oxo-5-((tetrahydro-2H-pyran-4-yl)methy 1)-1,2-dihydropyridin-3-carboxamide] |
| 6 | 73 | COc1cc2nccc(Oc3ccc(NC(=O)c4cn(CC5CC[S+]([O-])CC5)cc(-c5ccc(C)cc5)c4=O)nc3)c2cc1OC (centres unmarked) [Compound 8, N-(5-((6,7-dimethoxyquinolin-4-yl)oxy)pyridin-2-yl)-1-((1-oxotetrahydro-2H-thiopyran-4-yl)methyl)-4-oxo-5-(p-tolyl)-1,4-dihydropyridin-3-carboxamide] |
| 9 | 5 | COc1cc2nccc(Oc3cnc(NC(=O)c4cn(CC5CCOCC5)cc(-c5ccc(C)cc5)c4=O)nc3)c2cc1OC [Compound 4, N-(5-((6,7-dimethoxyquinolin-4-yl)oxy)pyrimidin-2-yl)-4-oxo-1-((tetrahydro-2H-pyran-4-yl)methyl)-5-(p-tolyl)-1,4-dihydropyridin-3-carboxamide] |
| 3 | 1 | COc1cc2nccc(Oc3ccc(NC(=O)c4nn(C5CCOCC5)cc(-c5ccc(C)cc5)c4=O)nc3)c2cc1OC [Compound 17, N-(5-((6,7-dimethoxyquinolin-4-yl)oxy)pyridin-2-yl)-4-oxo-1-(tetrahydro-2H-pyran-4-yl)-5-(p-tolyl)-1,4-dihydropyridazin-3-carboxamide] |
| 35 | 5 | COc1cc2nccc(Oc3ccc(NC(=O)c4cn(CC5CCSCC5)cc(-c5ccc(C)cc5)c4=O)nc3)c2cc1OC [Compound 9, N-(5-((6,7-dimethoxyquinolin-4-yl)oxy)pyridin-2-yl)-4-oxo-1-((tetrahydro-2H-thiopyran-4-yl)methyl)-5-(p-tolyl)-1,4-dihydropyridin-3-carboxamide] |
| 7 | 5 | COc1cc2nccc(Oc3cnc(NC(=O)c4nn(C5CCOCC5)cc(-c5ccc(C)cc5)c4=O)nc3)c2cc1OC [Compound 18, N-(5-((6,7-dimethoxyquinolin-4-yl)oxy)pyrimidin-2-yl)-4-oxo-1-(tetrahydro-2H-pyran-4-yl)-5-(p-tolyl)-1,4-dihydropyridazin-3-carboxamide] |
| 11 | 15 | COc1cc2nccc(Oc3ccc(NC(=O)c4cn(CC5CCOCC5)c5ccccc5c4=O)nc3)c2cc1OC [Compound 25, N-(5-((6,7-dimethoxyquinolin-4-yl)oxy)pyridin-2-yl)-4-oxo-1-((tetrahydro-2H-pyran-4-yl)methyl)-1,4-dihydroquinolin-3-carboxamide] |
| 29 | 2 | COc1cc2nccc(Oc3ccc(NC(=O)c4nn(C5CCOCC5)cc(-c5ccc(F)cc5)c4=O)nc3)c2cc1OC [Compound 34, N-(5-((6,7-dimethoxyquinolin-4-yl)oxy)pyridin-2-yl)-5-(4-fluorophenyl)-4-oxo-1-(tetrahydro-2H-pyran-4-yl)-1,4-dihydropyridazin-3-carboxamide] |
| 23 | 1 | COc1cc2nccc(Oc3ccc(NC(=O)c4nn(C5CCOCC5)cc(-c5ccc(C)cc5)c4=O)cc3F)c2cc1OC [Compound 28] |
| 13 | 7 | COc1cc2nccc(Oc3ccc(NC(=O)c4cn(C5CCOCC5)cc(-c5ccc(F)cc5)c4=O)nc3)c2cc1OC [Compound 27, N-(5-((6,7-dimethoxyquinolin-4-yl)oxy)pyridin-2-yl)-5-(4-fluorophenyl)-4-oxo-1-(tetrahydro-2H-pyran-4-yl)-1,4-dihydropyridin-3-carboxamide] |
| 23 | 8 | COc1cc2nccc(Oc3ccc(NC(=O)c4cc(-c5ccc(C)cc5)cn(CC5CCOCC5)c4=O)nc3)c2cc1OC [Compound 13, N-(5-((6,7-dimethoxyquinolin-4-yl)oxy)pyridin 2yl)-2-oxo-1-((tetrahydro-2H-pyran-4-yl)methyl)-5-(p-tolyl)-1,2-dihydropyridin-3-carboxamide] |
| 39 | 20 | Cc1ccc(-c2cn(C3CCOCC3)nc(C(=O)Nc3ccc(Oc4ccnc5cc6c(cc45)OCCO6)cn3)c2=O)cc1 [Compound 30, N-(5-((2,3-dihydro-[1,4]dioxino[2,3-g]quinolin-9-yl)oxy)pyridin-2-yl)-4-oxo-1-(tetrahydro-2H-pyran-4-yl)-5-(p-tolyl)-1,4-dihydropyridazin-3-carboxamide] |
| 15 | 8 | COc1cc2nccc(Oc3cnc(NC(=O)c4cn(C5CCOCC5)cc(-c5ccc(F)cc5)c4=O)nc3)c2cc1OC [Compound 31, N-(5-((6,7-dimethoxyquinolin-4-yl)oxy)pyrimidin-2-yl)-5-(4-fluorophenyl)-4-oxo-1-(tetrahydro-2H-pyran-4-yl)-1,4-dihydropyridin-3-carboxamide] |
| 4 | 3 | COc1cc2nccc(Oc3cnc(NC(=O)c4nn(CC5CCOCC5)cc(-c5ccc(C)cc5)c4=O)nc3)c2cc1OC [Compound 16, N-(5-((6,7-dimethoxyquinolin-4-yl)oxy)pyrimidin-2-yl)-4-oxo-1-((tetrahydro-2H-pyran-4-yl)methyl)-5-(p-tolyl)-1,4-dihydropyridazin-3-carboxamide] |
| 27 | 6 | COc1cc2nccc(Oc3cnc(NC(=O)c4nn(C5CCOCC5)cc(-c5ccc(F)cc5)c4=O)nc3)c2cc1OC [Compound 33, N-(5-((6,7-dimethoxyquinolin-4-yl)oxy)pyrimidin-2-yl)-5-(4-fluorophenyl)-4-oxo-1-(tetrahydro-2H-pyran-4-yl)-1,4-dihydropyridazin-3-carboxamide] |
